Laboratory results: patent US11851391B2, “Antifungal compounds and methods of forming the same” (University of Kentucky Research Foundation, priority 2018, dated 2023)
Converted amounts (≈) assume the structure as drawn. “Also recorded” adds a separate entry of the source. Like-named read-outs stand apart in the source and are kept apart here. One block for each compound: values may come before it.

Tests used:
[1] = system: Candida albicans ATCC 10231(R) (strain A); assay: MIC determination, in vitro antifungal assay (CLSI M27-A3); format: cell-based; conditions: Candida albicans, ATCC10231, 48 h, MIC-0 (no visible growth), 48 h at 35° C., read-out: MIC
Method in brief: (§1)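 The read-out is MIC-0, the minimum drug concentration yielding complete inhibition of yeast growth. Testing followed CLSI M27-A3 with minor changes, using cells at 2-4×10^3 CFU/mL in MOPS-buffered RPMI 1640 (pH 7.0) at 35° C, with DMSO under 1.25%.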

[2] = system: Candida parapsilosis ATCC 22019 (strain J); assay: as above; format: cell-based; conditions: Lodderomyces parapsilosis, read-out: MIC
Method in brief: as §1

[3] = system: C. albicans ATCC 64124(R) (strain B); assay: as above; format: cell-based, Candida albicans; conditions: Candida albicans, read-out: MIC
Method in brief: as §1

[4] = system: C. albicans ATCC MYA-1237(R) (strain F); assay: as above; format: cell-based, Candida albicans; conditions: Candida albicans, read-out: MIC
Method in brief: as §1

[5] = system: C. albicans ATCC MYA-2310(S) (strain E); assay: as above; format: cell-based, Candida albicans; conditions: Candida albicans, read-out: MIC
Method in brief: as §1

[6] = system: Aspergillus flavus ATCC MYA-3631 (strain K); assay: MIC determination against filamentous fungi (CLSI M38-A2); format: cell-based; conditions: Aspergillus flavus, 48 h, MIC-0, 48 h at 35° C., read-out: MIC
Method in brief: (§2)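 Broth microdilution followed CLSI M38-A2 in RPMI 1640 buffered to pH 7.0 with 0.165 M MOPS. Spores were harvested from PDA cultures, counted by hemocytometer and added at 5×10^5 CFU/mL final, then incubated 48 h at 35° C. MIC was taken as complete growth inhibition versus growth control (MIC-0), run in triplicate.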

[7] = system: Aspergillus nidulans ATCC 38163 (strain L); assay: as above; format: cell-based; conditions: Aspergillus nidulans, ATCC38163, 48 h, MIC-0, 48 h at 35° C., read-out: MIC
Method in brief: as §2

[8] = system: Aspergillus terreus ATCC MYA-3633 (strain M); assay: as above; format: cell-based; conditions: Aspergillus terreus, 48 h, MIC-0, 48 h at 35° C., read-out: MIC
Method in brief: as §2

[9] = system: murine red blood cells (mRBCs); conditions: mouse, 60 min
Experimental: Thus, the hemolytic activity for these bishydrazones was investigated against murine red blood cells (mRBCs).
Murine red blood cells (mRBCs) were prepared by suspending 1 mL of murine blood in 3 mL of PBS prior to centrifugation at 1,000 rpm for 5 min. The mRBCs were washed four times in PBS and resuspended in the same buffer to a final concentration of 10^7 mRBC/mL. […] The tubes were incubated at 37° C. for 60 min. […] Eppendorf tubes containing 200 μL of ddH2O and 2 μL of 1% v/v Triton™ X-100 served as negative (blank) and positive controls, respectively. The percentage of hemolysis was calculated using the following equation: % hemolysis=[(absorbance of sample)−(absorbance of blank)]×100/(absorbance of positive control).

[10] = system: C. albicans ATCC 90819(R) (strain D); assay: MIC determination, in vitro antifungal assay (CLSI M27-A3); format: cell-based; conditions: Candida albicans, ATCC90819, strain D; MIC-2 (50% growth inhibition), reported for VOR
[11] = system: C. albicans ATCC 90819(R) (strain D); assay: as above; format: cell-based, Candida albicans; conditions: Candida albicans, ATCC90819, 48 h, MIC-0, 48 h at 35° C., read-out: MIC
Method in brief: as §1

[12] = system: C. albicans ATCC MYA-1003(R) (strain G); assay: as above; format: cell-based, Candida albicans; conditions: Candida albicans, 48 h, MIC-0, 48 h at 35° C., read-out: MIC
Method in brief: (§3)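 A single colony was grown overnight in YPD broth at 35° C with shaking, set to OD600 0.12 in water, and diluted to 2-4×10^3 CFU/mL in MOPS-buffered RPMI 1640 (pH 7.0). MICs were then determined by the CLSI M27-A3 method at 35° C, keeping DMSO under 1.25%.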

[13] = system: C. albicans ATCC MYA-2876(S) (strain C); assay: as above; format: cell-based, Candida albicans; conditions: Candida albicans, 48 h, MIC-0, 48 h at 35° C., read-out: MIC
Method in brief: as §3

[14] = system: Candida glabrata ATCC 2001 (strain H); assay: as above; format: cell-based; conditions: MIC-0, 48 h at 35° C.
Method in brief: as §3

[15] = system: Candida krusei ATCC 6258 (strain I); assay: as above; format: cell-based; conditions: Pichia kudriavzevii, ATCC6258, 48 h, MIC-0, 48 h at 35° C., read-out: MIC
Method in brief: as §3

[16] = system: various yeast strains and filamentous fungi (strains A-M); assay: Antifungal activity over the whole panel (summary of MIC data); format: cell-based, Candida and Aspergillus strains
Experimental: The activity of N,N′-diaryl-bishydrazones 7-22 was tested against a panel of seven strains of C. albicans: ATCC 10231(R) (A), ATCC 64124(R) (B), ATCC MYA-2876(S) (C), ATCC 90819(R) (D), ATCC MYA-2310(S) (E), ATCC MYA-1237(R) (F), and ATCC MYA-1003(R) (G). The activity of these bishydrazones 7-22 was also explored against a panel of three non-albicans Candida strains: C. glabrata ATCC 2001 (H), C. krusei ATCC 6258 (I), and C. parapsilosis ATCC 22019 (J). Finally, the activity of these bishydrazones 7-22 was explored against three Aspergillus strains: A. flavus ATCC MYA-3631 (K), A. nidulans ATCC 38163 (L), and A. terreus ATCC MYA-3633 (M).
The MIC values of compounds 7a-24c against yeast cells (strains A-J) were determined in 96-well plates as described in the CLSI document M27-A3 with minor modifications. A single colony of freshly prepared yeast cells was used to inoculate 5 mL of yeast extract peptone dextrose (YPD) broth prior to incubation overnight with shaking at 200 rpm at 35° C. From the actively growing yeast culture, 100 μL were then transferred to 900 μL of sterile ddH2O and re-adjusted to achieve OD600 of 0.12 (˜1×10^6 CFU/mL). The cell suspension was further diluted to achieve 2-4×10^3 CFU/mL in RPMI 1640 medium. […] The final concentration of DMSO was ensured to be <1.25% in all experiments. The MIC values for compounds 7a-24c and CAS were defined as the minimum drug concentration that yielded complete inhibition (also known as MIC-0).
Similarly, the MIC values of compounds 7a-24c, as well as that of the two control drugs against filamentous fungi (strains K-M) were determined as previously described in CLSI document M38-A2. Spores were harvested from sporulating cultures growing on potato dextrose agar (PDA) by filtration through sterile glass wool and enumerated by using a hemocytometer to obtain the desired inoculum size. […] Spore suspensions were added to the wells to afford a final concentration of 5×10^5 CFU/mL. The plates were incubated at 35° C. for 48 h. The MIC values of compounds 7a-24c and CAS against filamentous fungi were based on the complete inhibition of growth when compared to the growth control (MIC-0). […] Each test was performed in triplicate.

[17] = system: various bacterial strains, including Listeria monocytogenes, methicillin-resistant Staphylococcus aureus, and vancomycin-resistant enterococci; assay: Antibacterial activity; format: cell-based
Description: The activity of N,N′-diaryl-bishydrazones 7-22 was explored against various bacterial strains, including Listeria monocytogenes, methicillin-resistant Staphylococcus aureus, and vancomycin-resistant enterococci.

[18] = MIC-2 (50% growth inhibition), reported for VOR

MIC [1]: 0.975 µg/mL (≈ 2.79 µM)
MIC ([2]; ATCC22019, strain J, MIC-2 (50% growth inhibition), reported for VOR): 1.95 µg/mL (≈ 5.58 µM)
MIC ([3]; ATCC64124, strain B, MIC-2 (50% growth inhibition), reported for VOR): 0.24 µg/mL (≈ 0.687 µM)
MIC [4, 18]: 0.24 µg/mL (≈ 0.687 µM)
MIC [5, 18]: 0.12 µg/mL (≈ 0.344 µM)
MIC [6]: > 31.3 µg/mL
MIC [7]: > 31.3 µg/mL
MIC [8]: > 31.3 µg/mL
MIC [10]: 0.12 µg/mL (≈ 0.344 µM)
Structure (SMILES): C[C@@H](c1ncncc1F)[C@](O)(Cn1cncn1)c1ccc(F)cc1F [VOR, voriconazole, reference compound]
Percentage of hemolysis (±SDEV) ([9]; 0.975 μg/mL): 10.3 ± 2.1%
Percentage of hemolysis (±SDEV) ([9]; 1.95 μg/mL): 6.3 ± 1.9%
Percentage of hemolysis (±SDEV) ([9]; 3.9 μg/mL): 7.5 ± 0.5%
Percentage of hemolysis (±SDEV) ([9]; 7.8 μg/mL): 11.4 ± 10.9%
Percentage of hemolysis (±SDEV) ([9]; 15.6 μg/mL): 2.8 ± 1.3%

MIC [1]: 31.3 µg/mL (≈ 89.3 µM)
MIC ([2]; ATCC22019, 48 h, strain J, MIC-0, 48 h at 35° C.): > 31.3 µg/mL
MIC ([3]; ATCC64124, 48 h, strain B, MIC-0, 48 h at 35° C.): 31.3 µg/mL (≈ 89.3 µM)
MIC [11]: > 31.3 µg/mL
MIC ([4]; 48 h, MIC-0, 48 h at 35° C.): 31.3 µg/mL (≈ 89.3 µM)
MIC ([5]; 48 h, MIC-0, 48 h at 35° C.): 31.3 µg/mL (≈ 89.3 µM)
MIC [12]: > 31.3 µg/mL
MIC [13]: > 31.3 µg/mL
MIC [14]: 15.6 µg/mL (≈ 44.5 µM)
MIC ([14]; Nakaseomyces glabratus, ATCC2001, 48 h, read-out: MIC): 15.6 µg/mL (≈ 44.5 µM)
MIC [15]: 31.3 µg/mL (≈ 89.3 µM)
MIC [6]: > 31.3 µg/mL
MIC [7]: 31.3 µg/mL (≈ 89.3 µM)
MIC [8]: > 31.3 µg/mL
MIC ([16]; against all fungal strains tested, with named exceptions, read-out: antifungal activity class based on MIC values): ≥ 31.3 µg/mL
Structure (SMILES): CC(C)(C)N/N=C/c1ccc(-c2ccc(/C=N/NC(C)(C)C)cc2)cc1 [Compound 23b]
antifungal activity (in words) ([16]; over the fungal strains tested, based on MIC data of Table 1): inactive
antibacterial activity (in words) [17]: neither the N,N′-diaryl-bishydrazones 7-22 nor the N,N′-di-tert-butyl-bishydrazone 23b displayed antibacterial activity; also recorded: Neither the N,N′-diaryl-bishydrazones 7-22 or the N,N′-dialkyl-bishydrazone 23b displayed antibacterial activity
